Assays:
Recombinant IKKα = molecular target: T1, Recombinant IKKα (Homo sapiens, UniProt O15111); assay: DELFIA IKKα kinase assay (apparent Ki, Cheng-Prusoff); format: biochemical
T1 construct: purchased Millipore, Dundee, UK
T1 sequence (O15111 1-745): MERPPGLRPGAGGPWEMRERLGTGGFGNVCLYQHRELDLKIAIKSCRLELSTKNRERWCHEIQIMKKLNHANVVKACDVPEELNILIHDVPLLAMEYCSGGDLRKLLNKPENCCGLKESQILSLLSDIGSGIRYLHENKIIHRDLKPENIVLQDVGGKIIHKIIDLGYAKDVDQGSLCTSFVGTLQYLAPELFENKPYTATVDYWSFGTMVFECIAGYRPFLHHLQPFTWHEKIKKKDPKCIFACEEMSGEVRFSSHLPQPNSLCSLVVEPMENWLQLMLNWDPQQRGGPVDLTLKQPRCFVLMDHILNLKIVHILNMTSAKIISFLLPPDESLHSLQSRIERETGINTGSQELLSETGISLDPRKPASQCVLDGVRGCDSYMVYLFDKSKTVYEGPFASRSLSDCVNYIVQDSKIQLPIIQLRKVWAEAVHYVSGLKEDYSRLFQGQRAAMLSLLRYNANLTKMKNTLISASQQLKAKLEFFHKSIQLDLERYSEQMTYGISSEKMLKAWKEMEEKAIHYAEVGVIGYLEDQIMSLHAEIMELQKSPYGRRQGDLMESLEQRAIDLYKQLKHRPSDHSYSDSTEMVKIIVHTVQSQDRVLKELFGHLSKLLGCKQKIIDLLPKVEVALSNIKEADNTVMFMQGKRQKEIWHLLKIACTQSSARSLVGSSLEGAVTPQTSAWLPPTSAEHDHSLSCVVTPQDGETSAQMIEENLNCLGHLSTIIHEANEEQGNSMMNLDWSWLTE
Summary of the method: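 DELFIA time-resolved fluorescence (ex 340/em 615 nm) quantified phosphorylation of a biotinylated IκB-α Ser32 peptide (0.375 μM) by 37 nM recombinant IKKα or IKKβ. Reactions used 40 μM ATP, Tris pH 7.5 buffer with MgCl2, DTT and BSA, 60 min at 30° C. Cheng-Prusoff equation gave apparent Ki.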

CHUK (IKK alpha) = molecular target: T2, CHUK (IKK alpha) (Homo sapiens, UniProt O15111); assay: Adapta IKKα assay (TR-FRET ADP formation, Life Technologies); format: biochemical
T2 construct: purchased Life Technologies (assay performed by the vendor)
T2 sequence (O15111 1-745): T1 sequence (O15111 1-745)
Procedure: IKKα and IKKβ inhibitory activity was determined using three different assays: a dissociation enhanced ligand fluorescent immunoassay (DELFIA) based on the protocol of HTScan™ IKKβ Kinase Assay (Cell Signaling Technology, USA); an Adapta IKKα assay (performed by Life Technologies); a Z′-LYTE™ IKKβ assay (performed by Life Technologies).
The reaction was performed in low-volume white 384-well plates (Corning model 4512).
The test compounds were screened in 1% DMSO (final) in the well. For 10 point titrations, 3-fold serial dilutions were conducted from the starting concentration of 50 mM.
The 2× CHUK (IKK alpha) kinase was prepared in 50 mM HEPES pH 7.5, 0.01% BRIJ-35, 10 mM MgCl2 and 1 mM EGTA. The final 10 μL kinase mixture consisted of 50-250 ng CHUK (IKK alpha) in 32.5 mM HEPES pH 7.5, 0.005% BRIJ-35, 5 mM MgCl2 and 0.5 mM EGTA. No substrate was required, as the assay measures the ability of a compound to inhibit the kinase's intrinsic ATPase activity.
5 μL of 2× Kinase mixture was incubated with 2.5 μL of ATP solution diluted to a 4×working concentration in water, in the presence of 100 nL of 100× test compound in 100% DMSO and 2.4 μL of 30 mM HEPES buffer.
After 30-second plate shake and 1-minute centrifuge at 1000×g, the resulting kinase reaction was allowed to incubate for 1 hour at room temperature before 5 μL of Detection Mix was added.
The Detection Mix, previously prepared in TR-FRET Dilution Buffer, consisted of EDTA (30 mM), Eu-anti-ADP antibody (6 nM) and an Alexa Fluor™ 647 labelled ADP tracer. The Detection Mix contained the EC60 concentration of tracer for 5-150 μM ATP.
After 30-second plate shake and 1-minute centrifuge at 1000×g, the Detection Mix was allowed to equilibrate at room temperature for 1 hour. Then the plate was read using a fluorescence plate reader configured for Adapta™ TR-FRET and the data analysed.
ADP formation was determined by calculating the emission ratio from the assay well. Therefore, the emission ratio was calculated by dividing the intensity of the tracer (acceptor) emission by the intensity of the Eu (donor) emission at 615 nm as shown in the equation below.
The IKKα and IKKb figures quoted in italicised form are from the Adapta assay described above.

[1] = non-italicised figure: DELFIA assay
[2] = DELFIA assay (first line of an example)
[3] = Adapta assay (second line of an example)

SMILES: CC(C)(C)C#Cc1c(-c2ccc3[nH]nc(N)c3c2)ccnc1N [Example 72, 5-(2-Amino-3-(3,3-dimethylbut-1-yn-1-yl)pyridine-4-yl)-1H-indazol-3-amine]
- Ki (Recombinant IKKα; [1]): 6 nM
- IC50 (CHUK (IKK alpha); Adapta assay): 1 nM

SMILES: Nc1nccc(-c2ccc3[nH]nc(N)c3c2)c1C#CC1CCCC1 [Example 73, 5-(2-Amino-3-(cyclopentylethynyl)pyridine-4-yl)-1H-indazol-3-amine]
- Ki (Recombinant IKKα; [1]): 12 nM
- IC50 (CHUK (IKK alpha); Adapta assay): 2 nM

SMILES: Nc1nccc(-c2ccc3[nH]nc(N)c3c2)c1C#CC1CCCCC1 [Example 74, 5-(2-Amino-3-(cyclohexylethynyl)pyridine-4-yl)-1H-indazol-3-amine]
- Ki (Recombinant IKKα; [1]): 12 nM
- IC50 (CHUK (IKK alpha); Adapta assay): 3 nM

SMILES: Nc1nccc(-c2ccc3[nH]nc(N)c3c2)c1C#Cc1ccccc1 [Example 75, 5-(2-Amino-3-(phenylethynyl)pyridine-4-yl)-1H-indazol-3-amine]
- Ki (Recombinant IKKα; [1]): 10 nM
- IC50 (CHUK (IKK alpha); Adapta assay): 1 nM

SMILES: Nc1nccc(-c2ccc3[nH]nc(N)c3c2)c1C#CCO [Example 83, 3-(2-Amino-4-(3-amino-1H-indazol-5-yl)pyridine-3-yl)prop-2-yn-1-ol]
- Ki (Recombinant IKKα; [1]): 6 nM
- IC50 (CHUK (IKK alpha); Adapta assay): 1 nM

SMILES: Nc1nccc(-c2ccc3[nH]nc(N)c3c2)c1C#CCCO [Example 84, 4-(2-Amino-4-(3-amino-1H-indazol-5-yl)pyridine-3-yl)but-3-yn-1-ol]
- Ki (Recombinant IKKα; [1]): 1 nM
- IC50 (CHUK (IKK alpha); Adapta assay): 1 nM

SMILES: Nc1nccc(-c2ccc3[nH]nc(N)c3c2)c1C#CCCCO [Example 85, 5-(2-Amino-4-(3-amino-1H-indazol-5-yl)pyridine-3-yl)pent-4-yn-1-ol]
- Ki (Recombinant IKKα; [1]): 4 nM
- IC50 (CHUK (IKK alpha); Adapta assay): 1 nM

SMILES: CC(C)(O)C#Cc1c(-c2ccc3[nH]nc(N)c3c2)ccnc1N [Example 87, 4-(2-Amino-4-(3-amino-1H-indazol-5-yl)pyridine-3-yl)-2-methylbut-3-yn-2-ol]
- Ki (Recombinant IKKα; [1]): 8 nM
- IC50 (CHUK (IKK alpha); Adapta assay): 4 nM

SMILES: CC(C)(C)OCC#Cc1c(-c2ccc3[nH]nc(N)c3c2)ccnc1N [Example 88, 5-(2-Amino-3-(3-(tert-butoxy)prop-1-yn-1-yl)pyridine-4-yl)-1H-indazol-3-amine]
- Ki (Recombinant IKKα; [1]): 133 nM
- IC50 (CHUK (IKK alpha); Adapta assay): 8 nM

SMILES: Nc1nccc(-c2ccc3[nH]nc(N)c3c2)c1C#CC1(O)CCCCC1 [Example 90, 1-((2-Amino-4-(3-amino-1H-indazol-5-yl)pyridine-3-yl)ethynyl)cyclohexan-1-ol]
- Ki (Recombinant IKKα; [1]): 36 nM
- IC50 (CHUK (IKK alpha); Adapta assay): 3 nM

SMILES: Nc1nccc(-c2ccc3[nH]nc(N)c3c2)c1C#CC1(O)CCCCCC1 [Example 91, 1-((2-Amino-4-(3-amino-1H-indazol-5-yl)pyridine-3-yl)ethynyl)cycloheptan-1-ol]
- Ki (Recombinant IKKα; [1]): 105 nM
- IC50 (CHUK (IKK alpha); Adapta assay): 7 nM

SMILES: CC(C)(N)C#Cc1c(-c2ccc3[nH]nc(N)c3c2)ccnc1N [Example 92, 5-(2-Amino-3-(3-amino-3-methylbut-1-yn-1-yl)pyridin-4-yl)-1H-indazol-3-amine]
- Ki (Recombinant IKKα; [1]): 7 nM
- IC50 (CHUK (IKK alpha); Adapta assay): 6 nM

SMILES: Nc1nccc(-c2ccc3[nH]nc(N)c3c2)c1C#CCCN1CCCCC1 [Example 93, 5-(2-Amino-3-(4-(piperidin-1-yl)but-1-yn-1-yl)pyridin-4-yl)-1H-indazol-3-amine]
- Ki (Recombinant IKKα; [1]): 32 nM
- IC50 (CHUK (IKK alpha); Adapta assay): 7 nM

SMILES: Nc1nccc(-c2ccc3[nH]nc(N)c3c2)c1C#CCCCN1CCCCC1 [Example 95, 5-(2-Amino-3-(5-(piperidin-1-yl)pent-1-yn-1-yl)pyridin-4-yl)-1H-indazol-3-amine]
- Ki (Recombinant IKKα; [1]): 91 nM
- IC50 (CHUK (IKK alpha); Adapta assay): 12 nM

SMILES: Nc1nccc(-c2ccc3[nH]nc(N)c3c2)c1C#CCCCN1CCOCC1 [Example 96, 5-(2-Amino-3-(5-morpholinopent-1-yn-1-yl)pyridin-4-yl)-1H-indazol-3-amine]
- Ki (Recombinant IKKα; [1]): 350 nM
- IC50 (CHUK (IKK alpha); Adapta assay): 21 nM

SMILES: Nc1nccc(-c2ccc3[nH]nc(N)c3c2)c1C#CCCC(=O)N1CCOCC1 [Example 99, 5-(2-Amino-4-(3-amino-1H-indazol-5-yl)pyridine-3-yl)-1-morpholinopent-4-yn-1-one]
- Ki (Recombinant IKKα; [1]): 15 nM
- IC50 (CHUK (IKK alpha); Adapta assay): 3 nM

SMILES: Nc1cc(-c2cc(-c3ccccc3)c3[nH]nc(N)c3c2)ccn1 [Example 104, 5-(2-Aminopyridin-4-yl)-7-phenyl-1H-indazol-3-amine]
- Ki (Recombinant IKKα; [1]): 54 nM
- IC50 (CHUK (IKK alpha); Adapta assay): 3 nM

SMILES: Nc1cc(-c2cc(-c3ccoc3)c3[nH]nc(N)c3c2)ccn1 [Example 129, 5-(2-Aminopyridin-4-yl)-7-(furan-3-yl)-1H-indazol-3-amine]
- Ki (Recombinant IKKα; [1]): 10 nM
- IC50 (CHUK (IKK alpha); Adapta assay): 5 nM

SMILES: CC(C)(C)C#Cc1cc(-c2ccnc(N)c2)cc2c(N)n[nH]c12 [Example 137, 5-(2-Aminopyridin-4-yl)-7-(3,3-dimethylbut-1-yn-1-yl)-1H-indazol-3-amine]
- Ki (Recombinant IKKα; [1]): 53 nM
- IC50 (CHUK (IKK alpha); Adapta assay): 11 nM

SMILES: CC(C)(O)C#Cc1cc(-c2ccnc(N)c2)cc2c(N)n[nH]c12 [Example 140, 4-(3-Amino-5-(2-aminopyridin-4-yl)-1H-indazol-7-yl)-2-methylbut-3-yn-2-ol]
- Ki (Recombinant IKKα; [1]): 281 nM
- IC50 (CHUK (IKK alpha); Adapta assay): 39 nM

SMILES: C#Cc1cc(-c2ccnc3[nH]ccc23)cc2c(N)n[nH]c12 [Example 200, 7-Ethynyl-5-(1H-pyrrolo[2,3-b]pyridin-4-yl)-1H-indazol-3-amine]
- Ki (Recombinant IKKα; [2]): 26 nM
- IC50 (CHUK (IKK alpha); [3]): 3.3 nM

SMILES: CC(C)(C)C#Cc1cc(-c2ccnc3[nH]ccc23)cc2c(N)n[nH]c12 [Example 201, 7-(3,3-Dimethylbut-1-yn-1-yl)-5-(1H-pyrrolo[2,3-b]pyridin-4-yl)-1H-indazol-3-amine]
- Ki (Recombinant IKKα; [2]): 62 nM
- IC50 (CHUK (IKK alpha); [3]): 11 nM

SMILES: Nc1n[nH]c2c(C#CC3CC3)cc(-c3ccnc4[nH]ccc34)cc12 [Example 202, 7-(Cyclopropylethynyl)-5-(1H-pyrrolo[2,3-b]pyridin-4-yl)-1H-indazol-3-amine]
- Ki (Recombinant IKKα; [2]): 13 nM
- IC50 (CHUK (IKK alpha); [3]): 2 nM

SMILES: Nc1n[nH]c2c(C#CC3CCCC3)cc(-c3ccnc4[nH]ccc34)cc12 [Example 203, 7-(Cyclopentylethynyl)-5-(1H-pyrrolo[2,3-b]pyridin-4-yl)-1H-indazol-3-amine]
- Ki (Recombinant IKKα; [2]): 26 nM
- IC50 (CHUK (IKK alpha); [3]): 16 nM

SMILES: Nc1n[nH]c2c(C#CC3CCCCC3)cc(-c3ccnc4[nH]ccc34)cc12 [Example 204, 7-(Cyclohexylethynyl)-5-(1H-pyrrolo[2,3-b]pyridin-4-yl)-1H-indazol-3-amine]
- Ki (Recombinant IKKα; [2]): 169 nM
- IC50 (CHUK (IKK alpha); [3]): 198 nM

SMILES: CC(C)(O)C#Cc1cc(-c2ccnc3[nH]ccc23)cc2c(N)n[nH]c12 [Example 206, 4-(3-Amino-5-(1H-pyrrolo[2,3-b]pyridin-4-yl)-1H-indazol-7-yl)-2-methylbut-3-yn-2-ol]
- Ki (Recombinant IKKα; [2]): 81 nM
- IC50 (CHUK (IKK alpha); [3]): 9 nM

SMILES: Nc1n[nH]c2c(C#CCCCN3CCOCC3)cc(-c3ccnc4[nH]ccc34)cc12 [Example 210, 7-(5-Morpholinopent-1-yn-1-yl)-5-(1H-pyrrolo[2,3-b]pyridin-4-yl)-1H-indazol-3-amine]
- Ki (Recombinant IKKα; [2]): 23 nM
- IC50 (CHUK (IKK alpha); [3]): 27 nM

SMILES: Nc1n[nH]c2c(C#CCCCN3CCCCC3)cc(-c3ccnc4[nH]ccc34)cc12 [Example 212, 7-(5-(Piperidin-1-yl)pent-1-yn-1-yl)-5-(1H-pyrrolo[2,3-b]pyridin-4-yl)-1H-indazol-3-amine]
- Ki (Recombinant IKKα; [2]): 30 nM
- IC50 (CHUK (IKK alpha); [3]): 12 nM
